Assay: mn = molality of the nth substance listed, in mol/kg
Conditions: Liquid, Vibrating tube method

[Ca+2].[Cl-].[Cl-] [calcium chloride] + CO
Conditions	mass density [kg/m3]
298.27 K, 184 kPa, m1 = 2.393	977.23
298.27 K, 5004 kPa, m1 = 2.393	980.74
298.27 K, 9983 kPa, m1 = 2.393	984.25
298.27 K, 14989 kPa, m1 = 2.393	987.66
298.27 K, 19998 kPa, m1 = 2.393	990.95
298.27 K, 25001 kPa, m1 = 2.393	994.14
298.27 K, 30011 kPa, m1 = 2.393	997.26
298.27 K, 34980 kPa, m1 = 2.393	1000.22
298.27 K, 39985 kPa, m1 = 2.393	1003.15
298.28 K, 175 kPa, m1 = 0.2853	814.28
298.28 K, 179 kPa, m1 = 0.6588	848.89
298.28 K, 202 kPa, m1 = 0.1082	797.82
298.28 K, 4988 kPa, m1 = 0.6588	853.15
298.28 K, 5000 kPa, m1 = 0.2853	818.77
298.28 K, 5011 kPa, m1 = 0.1082	802.48
298.28 K, 9997 kPa, m1 = 0.6588	857.39
298.28 K, 10009 kPa, m1 = 0.2853	823.22
298.28 K, 10011 kPa, m1 = 0.1082	807.08
298.28 K, 14985 kPa, m1 = 0.2853	827.41
298.28 K, 15002 kPa, m1 = 0.1082	811.44
298.28 K, 15012 kPa, m1 = 0.6588	861.47
298.28 K, 19991 kPa, m1 = 0.1082	815.57
298.28 K, 20010 kPa, m1 = 0.6588	865.31
298.28 K, 20018 kPa, m1 = 0.2853	831.46
298.28 K, 24989 kPa, m1 = 0.2853	835.29
298.28 K, 24991 kPa, m1 = 0.6588	868.99
298.28 K, 24997 kPa, m1 = 0.1082	819.63
298.28 K, 29982 kPa, m1 = 0.2853	838.98
298.28 K, 29989 kPa, m1 = 0.1082	823.45
298.28 K, 29991 kPa, m1 = 0.6588	872.56
298.28 K, 34983 kPa, m1 = 0.6588	875.99
298.28 K, 34994 kPa, m1 = 0.2853	842.53
298.28 K, 35017 kPa, m1 = 0.1082	827.11
298.28 K, 39984 kPa, m1 = 0.6588	879.31
298.28 K, 39998 kPa, m1 = 0.1082	830.67
298.28 K, 40005 kPa, m1 = 0.2853	845.94
323.22 K, 232 kPa, m1 = 0.6588	824.35
323.22 K, 237 kPa, m1 = 2.393	952.79
323.22 K, 245 kPa, m1 = 0.1082	773.87
323.22 K, 4998 kPa, m1 = 0.6588	829.19
323.22 K, 5003 kPa, m1 = 2.393	956.69
323.22 K, 5013 kPa, m1 = 0.1082	779.2
323.22 K, 9984 kPa, m1 = 0.1082	784.43
323.22 K, 9988 kPa, m1 = 2.393	960.6
323.22 K, 10013 kPa, m1 = 0.6588	834.04
323.22 K, 14985 kPa, m1 = 2.393	964.38
323.22 K, 14994 kPa, m1 = 0.1082	789.4
323.22 K, 15000 kPa, m1 = 0.6588	838.59
323.22 K, 19991 kPa, m1 = 0.1082	794.09
323.22 K, 20010 kPa, m1 = 0.6588	842.96
323.22 K, 20014 kPa, m1 = 2.393	968.03
323.22 K, 24988 kPa, m1 = 0.6588	847.08
323.22 K, 24989 kPa, m1 = 0.1082	798.56
323.22 K, 25005 kPa, m1 = 2.393	971.52
323.22 K, 29988 kPa, m1 = 0.1082	802.81
323.22 K, 29988 kPa, m1 = 2.393	974.89
323.22 K, 30009 kPa, m1 = 0.6588	851.08
323.22 K, 34980 kPa, m1 = 2.393	978.17
323.22 K, 34991 kPa, m1 = 0.1082	806.89
323.22 K, 35005 kPa, m1 = 0.6588	854.89
323.22 K, 39995 kPa, m1 = 0.1082	810.79
323.22 K, 39995 kPa, m1 = 0.6588	858.56
323.22 K, 40017 kPa, m1 = 2.393	981.39
323.23 K, 226 kPa, m1 = 0.2853	790.12
323.23 K, 5015 kPa, m1 = 0.2853	795.26
323.23 K, 9993 kPa, m1 = 0.2853	800.3
323.23 K, 14993 kPa, m1 = 0.2853	805.07
323.23 K, 20003 kPa, m1 = 0.2853	809.62
323.23 K, 25013 kPa, m1 = 0.2853	813.96
323.23 K, 30015 kPa, m1 = 0.2853	818.08
323.23 K, 34988 kPa, m1 = 0.2853	821.99
323.23 K, 40005 kPa, m1 = 0.2853	825.78
348.23 K, 303 kPa, m1 = 2.393	928.79
348.23 K, 4983 kPa, m1 = 2.393	933.12
348.23 K, 9990 kPa, m1 = 2.393	937.54
348.23 K, 15005 kPa, m1 = 2.393	941.76
348.23 K, 20000 kPa, m1 = 2.393	945.79
348.23 K, 24993 kPa, m1 = 2.393	949.65
348.23 K, 29995 kPa, m1 = 2.393	953.38
348.23 K, 35000 kPa, m1 = 2.393	956.97
348.23 K, 39984 kPa, m1 = 2.393	960.44
348.24 K, 308 kPa, m1 = 0.1082	748.93
348.24 K, 321 kPa, m1 = 0.6588	799.27
348.24 K, 326 kPa, m1 = 0.2853	765.1
348.24 K, 4986 kPa, m1 = 0.6588	804.77
348.24 K, 5001 kPa, m1 = 0.2853	770.94
348.24 K, 5010 kPa, m1 = 0.1082	755.08
348.24 K, 9985 kPa, m1 = 0.1082	761.11
348.24 K, 9995 kPa, m1 = 0.6588	810.3
348.24 K, 9998 kPa, m1 = 0.2853	776.76

— the NIST ThermoML archive (doi:10.1016/j.jct.2005.05.003)
